Assay results reported in article PMC4608580, “Synthesis and Evaluation of Biological Activity of Antimicrobial – Pro-Proliferative Peptide Conjugates” (PLoS ONE, 2015).
In brackets after ≈: the same amount, converted by molar mass. Residues, ends and D or L forms follow the SMILES beside them.

Key:
B. cereus = format: cell-based; details: 24 h
Protocol: (§1) Luria-Bertani broth (LB) and Sabouraud Dextrose broth (SB) (Biocorp, Poland) were used for cultivation of bacteria and fungi strains, respectively. Antimicrobial activity of peptides was analyzed through determination of MIC (minimal inhibitory concentration) parameter according to the standard microdilution technique performed on 96-well plates. Mueller-Hinton broth (MHB) was used as the working medium for all bacterial strains, while in case of fungi it was additionally supplemented with 2% glucose.
(§2) Briefly, inoculum was prepared from freshly grown cultures of microorganisms being at their exponential phase of growth. Each well of 96-well plates containing 100 μL of serially diluted peptides in PBS (phosphate buffer saline) at concentration ranging from 2 to 250 μg/mL were inoculated with 100 μL of approximately 10^5 CFU/mL of bacterial suspension or about 2.5 x 10^3 CFU/mL of fungi suspended in a double concentrated Mueller-Hinton broth (supplemented with 2% glucose for Candida spps.). Then plates were incubated overnight at 37°C and absorbance was read at 590 nm after 24 h. Cultures without peptide were treated as positive control, while uninoculated Mueller-Hinton broth was defined as negative control. All measurements were run at least in triplicate.
(§3) All peptides were screened against the wide range of microorganisms, including Gram-negative, Gram-positive bacteria and fungi from Candida species (Table 2). Broth microdilution method for MIC determination was used as a standard procedure. All assays were performed on liquid Mueller-Hinton broth, which was additionally supplemented with 2% glucose when fungicidal activity towards Candida spps. was analyzed.

[1] = Circular dichroism, alpha-helical content; format: physicochemical; details: CD, mean residue ellipticity at 222 nm (Eq 1), peptide 0.4 mg/ml in 30 mM SDS, room temperature
Protocol: Circullar dichroism spectra of analyzed compounds were recorded on a Jasco J-815 spectropolarimeter using a quartz cell of 1 mm path length between 195–260 nm at room temperature. Peptides at concentration of 0.4 mg/ml were dissolved in water or 30 mM SDS solution. SDS micelle system was used as the simplified model of negatively charged lipid membrane. On the basis of the obtained results the alpha-helical content was determined from the mean residue ellipticities at 222 nm according to Eq 1: %Helix=([θ]obs/([θ]helixx(1−2.57/l))x100, (1) where [θ] obs is the experimentally observed mean-residue ellipticity at 222 nm, [θ]helix is the theoretical ellipticity of peptide of infinite length with a 100% helix population, taken as -39 500 deg·cm^2/dmol, and l is the number of peptide bonds.
Circular dichroism method was applied to obtain a basic information about the secondary structure of the synthesized compounds (with the exception of CAR, CAR3, DAL, CTEN2) in two chemical environments, water and 30 mM SDS. As expected, all the tested compounds in water adopted a random-coil structure, while in the presence of 30 mM SDS most of them formed α-helices with characteristic negative minima around 208 and 220 nm. […] The examples of CD spectra for selected peptides could be seen in supporting information (Figure A in S1 File). On the basis of the experimentally obtained values of the mean residue ellipticities of peptides at 222 nm their alpha-helical content was calculated according to the Eq 1 (Table 1).

[2] = system: immortalized human HaCaT keratinocytes; assay: Cell proliferation assay (MTT); format: cell-based; details: 72 h, serum-free DMEM
Protocol: (§4) In our study two kind of cells were used: immortalized human HaCaT keratinocytes (DKFZ Heidelberg, Germany) and primary dermal fibroblasts obtained from 3 healthy donors. Both types of the used cell lines were grown in Dulbecco's modified Eagle's medium (DMEM) (Sigma–Aldrich, Germany), that contained […] of glucose, […] of L-glutamine, sodium pyruvate and sodium bicarbonate. Additionally, medium was supplemented with 10% of FCS (fetal calf serum, Sigma-Aldrich, Germany), 100 U/mL of penicillin and 100 μg/mL streptomycin (Sigma-Aldrich, Germany). The cells were grown in culture dishes (BD, USA) under standard conditions in a humidified atmosphere with 5% CO2 at 37°C and medium was changed every 2 days.
(§5) The fibroblasts and keratinocytes were seeded at density of 4500 and 6000 cells per well, respectively, into 96-well plates suspended in a medium supplemented with 10% of FCS. After 24 h the media were exchanged with serum- and antibiotic- free DMEM and tested peptides dissolved in PBS were added yielding final concentration ranging from 1 to 50 μg/mL. Cells were incubated for the next 24 hours, when the medium was exchanged again and fresh portion of peptides (used at the same concentrations as previously) was added. Incubation was continued for the next 48 hours (the overall time of cell exposition to peptide was 72 h). At the end of the experiment cells were treated with 20 μL of MTT (5 mg/mL in PBS). After 3 h at 37°C under 5% CO2 medium was discarded and replaced by 6mM HCl in isopropanol. After 15 min when the purple crystals of formazan were fully solubilized, absorbance was read at 570 nm with a plate reader. The optical density reflects the level of cell viability as MTT is converted in purple formazan product only in the presence of viable mitochondria of the living cells.
Fig 1 Pro-proliferative activity of the tested peptides towards human keratinocytes (A) and fibroblasts (B). Cells were incubated for 72 hours in serum-free DMEM medium in the presence of peptides applied at concentrations of 1,10, 25 and 50 μg/mL, respectively. The data represents results of MTT assay expressed as the percentage of the cell viability in comparison to their control sample (cells incubated in serum-free DMEM without tested peptides), additional positive control corresponds to the cells incubated in the presence of 10% FCS. All experiments were performed independently in triplicate. *P < 0.05, **P < 0.01, ***P < 0.001 vs. control.
In order to evaluate a long-term effect of peptides, experiments were carried out for 72 hours. Before addition of the tested compounds, the cell medium was exchanged for the fresh one not containing any serum or antibiotic.

[3] = system: Pseudomonas aeruginosa (PCM 499); format: cell-based; details: PCM 499, 24 h
Description: (§6) Escherichia coli (PCM 2057), Staphylococcus aureus (PCM 2054), Staphylococcus epidermidis (PCM 2118), Pseudomonas aeruginosa (PCM 499) were obtained from Polish Collection of Microorganisms. Fungi strains Candida albicans (CCM 8186), Candida glabrata (CCM 8270), Candida parapsilosis (CCM 8260), Candida krusei (CCM 8271), Candida tropicalis (CCM 8264) were acquired from Czech Collection of Microorganisms.
as §1, §2, §3

[4] = system: Staphylococcus aureus (PCM 2054); format: cell-based; details: PCM 2054, 24 h
Description: as §6, §1, §2, §3

[5] = system: Staphylococcus epidermidis (PCM 2118); format: cell-based; details: PCM 2118, 24 h
Description: as §6, §1, §2, §3

[6] = system: Escherichia coli (PCM 2057); format: cell-based; details: PCM 2057, 24 h
Description: as §6, §1, §2, §3

[7] = system: human primary dermal fibroblasts; assay: Cell proliferation assay (MTT); format: cell-based; details: 72 h, serum-free DMEM, dose-response relationship, peptide at 50 μg/mL
Protocol: Biopsies of healthy human skin were obtained aseptically from three donors (47–69 years old) undergoing circumcision after obtaining their written informed consent. All the procedures were approved by the Ethics Committee of Medical University of Gdansk (NKEBN/483/2011. Issued: 2011-12-19). The samples were washed several times with sterile PBS (Sigma-Aldrich, Germany) containing antibiotic (200 U/mL penicillin and 200 μg/mL streptomycin), after which, the subcutaneous tissue was cut off with a sharp blade. The resulting sheets were cut into small fragments, washed two times with sterile PBS and treated with 6 U/mL dispase II (BD, USA) overnight at 4°C to separate epidermis and dermis. The dermis was then digested with 1.0 mg/mL collagenase type I (from Clostridium histolyticum Sigma-Aldrich, Germany) for 2 hours at 37°C to isolate fibroblasts. Cells were used between the 2nd and 4th passage in all experiments.
as §4
as §5, with “At the end of the experiment cells were treated with 20 μL of MTT (5 mg/mL in PBS). After 3 h at 37°C under 5% CO2 medium was discarded and replaced by 6mM HCl in isopropanol.” left out, “The optical density reflects the level of cell viability as MTT is converted in purple formazan product only in the presence of viable mitochondria of the living cells.” left out
Fig 1 Pro-proliferative activity of the tested peptides towards human keratinocytes (A) and fibroblasts (B). […] The data represents results of MTT assay expressed as the percentage of the cell viability in comparison to their control sample (cells incubated in serum-free DMEM without tested peptides), additional positive control corresponds to the cells incubated in the presence of 10% FCS. […]

HaCaT keratinocytes = assay: Cell migration assay (in vitro scratch test); format: cell-based, human; details: 25 μg/mL, 24 h, serum-free DMEM, Mitomycin C 5 μg/mL, vs. control without peptide, three independent experiments
Protocol: Fibroblasts and keratinocytes were seeded (5x10^5 cells/well) in 6-well plates. When desired monolayer confluence was reached, cells were starved for 24 hours in serum-free DMEM. The monolayer was scratched then with 200μL-pipette tip. The floating cells and cell debris were removed by double washing in PBS, further replaced with a fresh serum-free medium. Wounded monolayers were incubated for the next 24 h in the presence of tested peptides used at concentration of 25 μg/mL and 5 μg/mL of Mitomycin C (Sigma Aldrich) to prevent proliferation. At the end of the experiment medium was removed and the cells were fixed with 3.7% PFA for 5 min, stained for the next 30 min with 0.05% crystal violet solution, washed several times with distilled water and the plates were left inverted for a couple of minutes to drain. The wounded areas were then photographed by means of Zeiss Observer D1 microscope equipped with camera AxioCam and analyzed with AxioVision software (Carl Zeiss, Germany). Migration activity of the cells treated with the tested peptides were expressed as the percentage of the wounded area with respect to the control probe (cell cultures without any of the peptide), assumed as 100%.
An in vitro scratch test was performed to investigate the effect of the analyzed compounds on keratinocytes and fibroblasts migration. Evaluation was based on the efficiency of the invasion of the monolayer cells to the prewounded area within 24 h after stimulation with the appropriate compound added at concetration of 25μg/mL.
Fig 2 Effect of the peptides on HaCaT keratinocytes and fibroblasts cell migration in the in vitro scratch test. HaCaT cells and fibroblasts were grown in 6-well plates until the 100% confluence was reached, then cells were starved for the next 12 hours in DMEM without 10% FCS and scratched once vertically with a 200μL pipette tip. After being washed two times with sterile PBS, a fresh portion of DMEM medium was added and cells were treated with the tested peptides applied at their optimal doses (25 μg/mL). Migration was analyzed after 24 hours by means of Zeiss Observer D1 microscope, wounding areas were analyzed with AxioVision software and expressed as the percentage of the wound width in comparison to the control sample (cells incubated in DMEM without FCS). Control+ FCS corresponds to the sample with cells incubated in the medium containing 10% FCS and was treated as the additional positive control. Data represent the mean ± SD of three independent experiments. *P < 0.05, **P < 0.01, ***P < 0.001 vs. control.

Molecule | MIC B. cereus (B. cereus) [µg/mL] | α-helicity [1] [%] | Effect on HaCaT proliferation (MTT), in words ([2]; peptide at 1–25 μg/mL) | MIC P. aeruginosa [3] [µg/mL] | MIC S.aureus [4] [µg/mL] | MIC S. epidermidis [5] [µg/mL] | MIC E.coli [6] [µg/mL] | Effect on fibroblast cell count (MTT), in words [7] | Effect on HaCaT cell viability/proliferation (MTT), in words ([2]; whole range 1–50 μg/mL, vs. control without peptide, triplicate) | Effect on keratinocyte migration (scratch test), in words (HaCaT keratinocytes)
CC(C)C[C@H](NC(=O)CNC(=O)[C@@H](N)CCC(=O)O)C(=O)N[C@@H](CCC(=O)O)C(=O)N1CCC[C@H]1C(=O)NCC(=O)NCCOCCOCC(=O)N[C@@H](CCCCN)C(=O)N[C@@H](CCCCN)C(=O)N[C@H](C(=O)N[C@H](C(=O)N[C@@H](Cc1ccccc1)C(=O)N[C@@H](Cc1c[nH]c2ccccc12)C(=O)N[C@H](C(=O)N[C@@H](CCCCN)C(=O)N[C@@H](Cc1ccccc1)C(=O)N[C@@H](CCCCN)C(N)=O)C(C)C)C(C)C)C(C)C [CTEN2-PEG-KSLW] (HELM PEPTIDE1{E.G.L.E.P.G.[O=C(COCCOCCN[*:1])[*:2]].K.K.V.V.F.W.V.K.F.K.[am]}$$$$V2.0; N-terminus assumed) | >125 | 27 | noticeable pro-proliferatory activity | >125 | >125 | 7.8 (≈ 3.83 µM) | >125 | highest cell count |  | 
carnosine [reference compound] |  |  |  |  |  |  |  |  | non-toxic | best results
